Test system: methicillin-resistant Staphylococcus aureus strain 560
Assay: Colony counts on PETRIFILM plates and blood agar plates containing cefoxitin or oxacillin
Format: cell-based
Conditions: conclusion in words from Tables 1 and 2
Protocol: PETRIFILM Aerobic Count Plates were obtained from 3M Company (St. Paul, Minn.). DIFCO dehydrated tryptic soy agar (TSA) was obtained from BD Diagnostics (Sparks, Md.). Defibrinated sheep blood was obtained from Remel, Inc. (Lenexa, Kans.).
Phosphate-buffered saline (PBS), pH 7.5, was prepared from a 10× concentrate (OmniPur 6505 buffered saline; EMD Chemicals, Inc.; Gibbstown, N.J.) and was sterilized by autoclaving. Antibiotic stock solutions were prepared in deionized water and were sterilized by passage through a 0.22 μm filter.
Sheep blood agar containing cefoxitin (SBA-Cf) was prepared to compare the recovery of antibiotic resistant microorganisms on agar media to the recovery of the antibiotic-resistant microorganisms in a thin-film culture device. Twenty grams of dehydrated TSA was mixed with 475 mL of deionized water and autoclaved. The molten agar was tempered at 50° C. Twenty-five milliliters of defibrinated sheep blood was added to the agar (to yield a final concentration of 5% sheep blood) and swirled to mix. Cefoxitin stock solution (0.5 mL of 4 mg/mL) was added to the agar and swirled to mix. […]
Bacterial strains were inoculated into tryptic soy broth and were incubated overnight at 37° C. […] All plates were incubated at 35° C. and the colonies on each plate were counted at 24±2 hours and 48±4 hours.

SMILES | Sensitivity or resistance of strain 560 to the antibiotic
CO[C@@]1(NC(=O)Cc2cccs2)C(=O)N2C(C(=O)O)=C(COC(N)=O)CS[C@@H]21 [cefoxitin] | sensitive
Cc1onc(-c2ccccc2)c1C(=O)N[C@@H]1C(=O)N2[C@@H]1SC(C)(C)[C@@H]2C(=O)O [oxacillin] | resistant
